Measured values as given in patent US12655130B2 (ASSEMBLY BIOSCIENCES, INC., priority 2020, dated 2026).

system: HBV viral load (viral production from HepAD38 cells); assay: Activity of test compounds on viral production from HepAD38 cells (viral load by qPCR of HBV core sequence); assay type: cell-based; conditions: Hepatitis B virus, HePAD38, 120 h, viral load lowering, 5 days, qPCR of supernatant, read-out: VL HepAD38 EC50 range
Description: Assay Measuring Activity of Test Compounds on Viral Production from HepAD38 Cells
HepAD38 cells grown in a T-150 flask (Corning, cat #: 430825) with Growth Medium (DMEM/F12 (1:1) (Hyclone, cat #: SH30023.02), 1× Pen/Strep (Invitrogen, cat #: 15140-122), 10% FBS (Tissue Culture Biologics, cat #: 101), 250 μg/mL G418 (Alfa Aesar, cat #: J62671), 1 μg/mL Tetracycline (Teknova, cat #: T3320)) were detached with 0.25% trypsin-EDTA (Invitrogen, cat #: 25200-056). Tetracycline-free treatment medium (15 mL DMEM/F12 (1:1) 1× Pen/step, with 2% FBS, Tet-system approved (Clontech, cat #: 631106) were then added to mix, transferred into a 50 ml conical tube (Falcon, cat #: 21008-918) and spun at 1300 rpm for 5 min. Pelleted cells were then re-suspended/washed with 50 mL of 1×DPBS (Invitrogen, cat #: 14190-136) 2 times and 50 mL treatment medium twice. HepAD38 cells were then re-suspended with 10 mL of treatment medium, syringed and counted. Wells of 96-well clear bottom TC plate (Corning, cat #: 3904) were seeded at 50,000 cells/well in 180 μL of treatment medium, and 20 μL of either 10% DMSO (Sigma, cat #: D4540) as controls or a 10× solution of test compounds in 10% DMSO in treatment media was added for a final compound concentration starting at 10 μM, and plates were incubated in 5% CO2 incubator at 37° C. for 5 days.
Subsequently viral load production was assayed by quantitative PCR (qPCR) of the HBV core sequence. PCR reaction mixture containing forward primers HBV-f 5′-CTGTGCCTTGGGTGGCITT-3′ (IDT DNA), Reverse primers HBV-r 5′-[…]-3′ (IDT DNA), Fluorescent TaqMan™ Probes HBV-probe 5′-FAM/AGCTCCAAA/ZENMITCTITATAAGGGTCGATGTC/3IABkFQ-3′ (IDT DNA), 10 μL/well of PerfeCTa® qPCR ToughMix® (Quanta Biosciences, Cat #: 95114-05K), and 6 μL/well of DEPC water (Alfa Aesar, cat #: J62087) was prepared. Four μL of supernatant was added to 16 μL of the reaction mixture in a qPCR plate (Applied Biosytems, Cat #: 4309849), sealed with a film (Applied Biosystems, Cat #: 4311971), centrifuged for a few seconds, and subsequently run on an Applied Biosystems VIIA7. The PCR mixture was incubated at 45° C. for 5 min, then 95° C. for 10 min, followed by 40 cycles of 10 seconds at 95° C. and 20 seconds at 60° C. Viral load was quantified against known HBV DNA standards by using ViiA™ 7 Software. Viral load in the supernatant from wells with treated cells were compared against viral load in supernatant from DMSO control wells (3 per plate). Cell viability assay was performed with CellTiter-Glo Luminescent Cell Viability Assay (Promega, cat #: G7573) with modification. Mixed appropriate amount of CellTiter-Glo (CTG) 1×DPBS in a 1:1 ratio, added 100 uL of the mixture to each well followed completely removal of all supernatant in each well without touching cell surface. Incubated the plate at room temperature for 10 min on an orbital shaker, and then read the plate with a plate reader (TECAN M1000 or Envision). EC50 or CC50 values were calculated through curve-fitting of the four-parameter nonlinear-logistic-regression model (GraphPad Prism or Dotmatics). CC50 values were all >10 μM.

| Compound | EC50 [nM] |
| --- | --- |
| CCNc1nc(C2CC3CC(=O)CC3C2)c(C(=O)Nc2ccc(F)c(Cl)c2)n1C (stereo not shown) [Example 49, N-(3-chloro-4-fluorophenyl)-2-(ethylamino)-1-methyl-4-(5-oxooctahydropentalen-2-yl)-1H-imidazole-5-carboxamide] | 50 to 500 |
| Cn1cnc(C2CC3CC(O)(c4c(Br)c(C#N)nn4C)CC3C2)c1C(=O)Nc1ccc(F)c(Cl)c1 (stereo not shown) [Example 181, 4-(5-(4-Bromo-3-cyano-1-methyl-1H-pyrazol-5-yl)-5-hydroxyoctahydropentalen-2-yl)-N-(3-chloro-4-fluorophenyl)-1-methyl-1H-imidazole-5-carboxamide] | < 10 |
| CC(O)c1nn(C)cc1C1(O)CC2CC(c3ncn(C)c3C(=O)Nc3ccc(F)c(Cl)c3)CC2C1 (stereo not shown) [Example 186, N-(3-Chloro-4-fluorophenyl)-4-(5-hydroxy-5-(3-(1-hydroxyethyl)-1-methyl-1H-pyrazol-4-yl)octahydropentalen-2-yl)-1-methyl-1H-imidazole-5-carboxamide] | < 10 |
| CC(C)Cc1cc(C2(O)CC3CC(c4ncn(C)c4C(=O)Nc4ccc(F)c(Cl)c4)CC3C2)n(C)n1 (stereo not shown) [Example 196, N-(3-Chloro-4-fluorophenyl)-4-(5-hydroxy-5-(3-isobutyl-1-methyl-1H-pyrazol-5-yl)octahydropentalen-2-yl)-1-methyl-1H-imidazole-5-carboxamide] | < 10 |
| CC(C)Oc1cc(C2(O)CC3CC(c4ncn(C)c4C(=O)Nc4ccc(F)c(Cl)c4)CC3C2)n(C)n1 (stereo not shown) [Example 54, N-(3-Chloro-4-fluorophenyl)-4-(5-hydroxy-5-(3-isopropoxy-1-methyl-1H-pyrazol-5-yl)octahydropentalen-2-yl)-1-methyl-1H-imidazole-5-carboxamide] | < 10 |
| Cn1cnc(C2CC3CC(O)(Cn4ccc(C(C)(C)C)n4)CC3C2)c1C(=O)Nc1ccc(F)c(Cl)c1 (stereo not shown) [Example 97, 4-(5-((3-(tert-butyl)-1H-pyrazol-1-yl)methyl)-5-hydroxyoctahydropentalen-2-yl)-N-(3-chloro-4-fluorophenyl)-1-methyl-1H-imidazole-5-carboxamide] | < 10 |
| CCn1nc(N)c(Cl)c1C1(O)CC2CC(c3ncn(C)c3C(=O)Nc3ccc(F)c(Cl)c3)CC2C1 (stereo not shown) [Example 168, 4-(5-(3-Amino-4-chloro-1-ethyl-1H-pyrazol-5-yl)-5-hydroxyoctahydropentalen-2-yl)-N-(3-chloro-4-fluorophenyl)-1-methyl-1H-imidazole-5-carboxamide] | 10 to 50 |
| Cc1c(N)nn(C)c1C1(O)CC2CC(c3ncn(C)c3C(=O)Nc3ccc(F)c(Cl)c3)CC2C1 (stereo not shown) [Example 75, 4-(5-(3-Amino-1,4-dimethyl-1H-pyrazol-5-yl)-5-hydroxyoctahydropentalen-2-yl)-N-(3-chloro-4-fluorophenyl)-1-methyl-1H-imidazole-5-carboxamide] | < 10 |
| CCn1nc(C(F)(F)F)cc1C1(O)CC2CC(c3ncn(C)c3C(=O)Nc3ccc(F)c(Cl)c3)CC2C1 (stereo not shown) [Example 173, N-(3-Chloro-4-fluorophenyl)-4-(5-(1-ethyl-3-(trifluoromethyl)-1H-pyrazol-5-yl)-5-hydroxyoctahydropentalen-2-yl)-1-methyl-1H-imidazole-5-carboxamide] | < 10 |
| [2H]C([2H])([2H])n1nccc1C1(O)CC2CC(c3ncn(C)c3C(=O)Nc3ccc(F)c(Cl)c3)CC2C1 (stereo not shown) [Example 137, N-(3-chloro-4-fluorophenyl)-4-(5-hydroxy-5-(1-(methyl-d3)-1H-pyrazol-5-yl)octahydropentalen-2-yl)-1-methyl-1H-imidazole-5-carboxamide] | < 10 |
| CC(O)COc1cc(C2(O)CC3CC(c4ncn(C)c4C(=O)Nc4ccc(F)c(Cl)c4)CC3C2)n(C)n1 (stereo not shown) [Example 208, N-(3-Chloro-4-fluorophenyl)-4-(5-hydroxy-5-(3-(2-hydroxypropoxy)-1-methyl-1H-pyrazol-5-yl)octahydropentalen-2-yl)-1-methyl-1H-imidazole-5-carboxamide] | < 10 |
| CCn1ncc(C2(O)CC3CC(c4ncn(C)c4C(=O)Nc4ccc(F)c(Cl)c4)CC3C2)c1C(F)(F)F (stereo not shown) [Example 174, N-(3-Chloro-4-fluorophenyl)-4-(5-(1-ethyl-5-(trifluoromethyl)-1H-pyrazol-4-yl)-5-hydroxyoctahydropentalen-2-yl)-1-methyl-1H-imidazole-5-carboxamide] | < 10 |
| Cn1cnc(C2CC3CC(O)(Cn4ccc(Cl)n4)CC3C2)c1C(=O)Nc1ccc(F)c(Cl)c1 (stereo not shown) [Example 101, 4-(5-((3-Chloro-1H-pyrazol-1-yl)methyl)-5-hydroxyoctahydropentalen-2-yl)-N-(3-chloro-4-fluorophenyl)-1-methyl-1H-imidazole-5-carboxamide] | < 10 |
| Cn1cnc(C2CC3CC(O)(c4cc(C(C)(C)C)nn4C)CC3C2)c1C(=O)Nc1ccc(F)c(Cl)c1 (single isomer, unassigned) [Example 74] | < 10 |
| Cc1nc(C2CC3CC(O)CC3C2)c(C(=O)Nc2ccc(F)c(Cl)c2)n1C (stereo not shown) [Example 24, N-(3-Chloro-4-fluorophenyl)-4-(5-hydroxyoctahydropentalen-2-yl)-1,2-dimethyl-1H-imidazole-5-carboxamide] | < 10 |
| CC(N)c1nn(C)cc1C1(O)CC2CC(c3ncn(C)c3C(=O)Nc3ccc(F)c(Cl)c3)CC2C1 (stereo not shown) [Example 184, 4-(5-(3-(1-Aminoethyl)-1-methyl-1H-pyrazol-4-yl)-5-hydroxyoctahydropentalen-2-yl)-N-(3-chloro-4-fluorophenyl)-1-methyl-1H-imidazole-5-carboxamide] | < 10 |
| Cn1cc(C2(O)CC3CC(c4ncn(C)c4C(=O)Nc4ccc(F)c(Cl)c4)CC3C2)c(C(C)(C)O)n1 (stereo not shown) [Example 187, N-(3-Chloro-4-fluorophenyl)-4-(5-hydroxy-5-(3-(2-hydroxypropan-2-yl)-1-methyl-1H-pyrazol-4-yl)octahydropentalen-2-yl)-1-methyl-1H-imidazole-5-carboxamide] | < 10 |
| Cn1ccnc1C1(O)CC2CC(c3ncn(C)c3C(=O)Nc3ccc(F)c(Cl)c3)CC2C1 (single isomer, unassigned) [Example 5, N-(3-Chloro-4-fluorophenyl)-4-(5-hydroxy-5-(1-methyl-1H-imidazol-2-yl)octahydropentalen-2-yl)-1-methyl-1H-imidazole-5-carboxamide] | < 10 |
| C[C@H](O)c1cc(C2(O)CC3CC(c4ncn(C)c4C(=O)Nc4ccc(F)c(Cl)c4)CC3C2)n(C)n1 (stereo partly drawn) [Example 78, N-(3-Chloro-4-fluorophenyl)-4-(−5-hydroxy-5-(3-((S)-1-hydroxyethyl)-1-methyl-1H-pyrazol-5-yl)octahydropentalen-2-yl)-1-methyl-1H-imidazole-5-carboxamide] | < 10 |
| Cn1cnc(C2CC3CC(NC4CC4)CC3C2)c1C(=O)Nc1ccc(F)c(Cl)c1 (single isomer, unassigned) [Example 44, 5-[-5-(Cyclopropylamino)-1,2,3,3a,4,5,6,6a-octahydropentalen-2-yl]-N-(3-chloro-4-fluorophenyl)-3-methyl-4-imidazolecarboxamide] | 10 to 50 |
| [2H]C([2H])([2H])C1(O)CC2CC(c3ncn(C)c3C(=O)Nc3ccc(F)c(Cl)c3)CC2C1 (single isomer, unassigned) [Example 80, N-(3-Chloro-4-fluorophenyl)-4(5-hydroxy-5-(methyl-d3)octahydropentalen-2-yl)-1-methyl-1H-imidazole-5-carboxamide] | 50 to 500 |

same assay, conditions: viral load lowering, 5 days, qPCR of supernatant, read-out: VL HepAD38 EC50 range

| Compound | EC50 [nM] |
| --- | --- |
| Cn1cnc(-c2ccc(C3CCC(c4ncn(C)c4C(=O)Nc4ccc(F)c(Cl)c4)C3)cc2)c1 (stereo not shown) [Example 15, N-(3-Chloro-4-fluorophenyl)-1-methyl-4-(3-(4-(1-methyl-1H-imidazol-4-yl)phenyl)cyclopentyl)-1H-imidazole-5-carboxamide] | < 10 |
